The experiment addresses Potassium voltage-gated channel subfamily A member 5 (Homo sapiens, UniProt P22460). The experiment is described as follows: Inhibition of human Kv1.5 channel expressed in mouse L929 cells by EP voltage clamp technique.
Sequence of Potassium voltage-gated channel subfamily A member 5 (P22460 whole entry): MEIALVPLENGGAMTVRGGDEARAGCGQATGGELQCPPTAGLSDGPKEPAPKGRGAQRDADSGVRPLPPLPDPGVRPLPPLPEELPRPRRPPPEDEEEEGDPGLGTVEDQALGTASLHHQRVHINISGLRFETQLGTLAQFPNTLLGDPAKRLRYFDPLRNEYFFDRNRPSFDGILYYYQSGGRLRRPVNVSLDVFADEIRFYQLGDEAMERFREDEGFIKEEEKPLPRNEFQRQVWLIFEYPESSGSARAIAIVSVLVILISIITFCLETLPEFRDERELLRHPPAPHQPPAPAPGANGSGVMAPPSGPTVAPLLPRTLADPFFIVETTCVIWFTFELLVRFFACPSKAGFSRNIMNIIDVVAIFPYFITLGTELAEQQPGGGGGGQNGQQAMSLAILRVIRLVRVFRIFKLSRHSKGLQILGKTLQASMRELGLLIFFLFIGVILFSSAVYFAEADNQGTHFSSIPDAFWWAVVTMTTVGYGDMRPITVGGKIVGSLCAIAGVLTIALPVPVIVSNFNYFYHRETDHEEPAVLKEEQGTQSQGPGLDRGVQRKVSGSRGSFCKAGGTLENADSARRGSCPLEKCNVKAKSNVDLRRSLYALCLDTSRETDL
By IC50 is commonly meant the point on the concentration scale where inhibition reaches its midpoint. Turning to `CCN(CC)C(=O)C1C(C)=Nc2ccnn2C1c1ccc(Cl)c(Cl)c1` (stereo unspecified) [7-(3,4-dichlorophenyl)-N,N-diethyl-5-methyl-4,7-dihydropyrazolo[1,5-a]pyrimidine-6-carboxamide], the midpoint of inhibition, the IC50, lay at 440 nM. This counts as sub-micromolar.

`CC1=Nc2ccnn2C(c2sc3ccccc3c2C)C1C(=O)N1CCN(c2ccc(F)cc2)CC1` (stereo unspecified) [(4-(4-fluorophenyl)piperazin-1-yl)(5-methyl-7-(3-methylbenzo[b]thiophen-2-yl)-4,7-dihydropyrazolo[1,5-a]pyrimidin-6-yl)methanone]: half-maximal inhibition (IC50) required 200 nM. This IC50 is about 2.2-fold lower than that of the compound before. The compound `CC1=Nc2ccnn2C(c2cccc(Cl)c2Cl)C1C(=O)N1CCN(c2ccc(F)cc2)CC1` (stereo unspecified) [(7-(2,3-dichlorophenyl)-5-methyl-4,7-dihydropyrazolo[1,5-a]pyrimidin-6-yl)(4-(4-fluorophenyl)piperazin-1-yl)methanone] returned an IC50 of 160 nM. In turn, `COC[C@@H]1CCCN1C(=O)C1C(C)=Nc2ccnn2C1c1ccc(Cl)c(Cl)c1` (stereo partly drawn) [(7-(3,4-dichlorophenyl)-5-methyl-4,7-dihydropyrazolo[1,5-a]pyrimidin-6-yl)((S)-2-(methoxymethyl)pyrrolidin-1-yl)methanone] displayed a 50% inhibitory concentration (IC50) of 200 nM. In the case of `CC1=Nc2ccnn2C(c2cccc(Cl)c2)C1C(=O)N1CCN(c2ccc(F)cc2)CC1` (stereo unspecified) [(7-(3-chlorophenyl)-5-methyl-4,7-dihydropyrazolo[1,5-a]pyrimidin-6-yl)(4-(4-fluorophenyl)piperazin-1-yl)methanone] it was 190 nM; in that of `CC1=Nc2ccnn2C(c2ccc(Cl)cc2)C1C(=O)N1CCN(c2ccc(F)cc2)CC1` (stereo unspecified) [(7-(4-chlorophenyl)-5-methyl-4,7-dihydropyrazolo[1,5-a]pyrimidin-6-yl)(4-(4-fluorophenyl)piperazin-1-yl)methanone], 440 nM; in that of `CC1=Nc2ccnn2C(c2cc3ccccc3o2)C1C(=O)N1CCN(c2ccc(F)cc2)CC1` (stereo unspecified) [(7-(benzofuran-2-yl)-5-methyl-4,7-dihydropyrazolo[1,5-a]pyrimidin-6-yl)(4-(4-fluorophenyl)piperazin-1-yl)methanone], 160 nM.

Regarding `CC1=Nc2ccnn2[C@H](c2cccc(Cl)c2Cl)C1C(=O)N1CCN(c2ccc(F)cc2)CC1` (stereo partly drawn) [(S)-(7-(2,3-dichlorophenyl)-5-methyl-4,7-dihydropyrazolo[1,5-a]pyrimidin-6-yl)(4-(4-fluorophenyl)piperazin-1-yl)methanone], the concentration for half-maximal inhibition (IC50) is 160 nM. In other words, the sub-micromolar range. The compound `CC1=Nc2ccnn2C(c2ccc(Cl)c(Cl)c2)C1C(=O)NCc1ccccc1` (stereo unspecified) [N-benzyl-7-(3,4-dichlorophenyl)-5-methyl-4,7-dihydropyrazolo[1,5-a]pyrimidine-6-carboxamide] displayed an IC50 of 160 nM. The figure for `CCCCNC(=O)C1C(C)=Nc2ccnn2C1c1ccc(Cl)c(Cl)c1` (stereo unspecified) [N-butyl-7-(3,4-dichlorophenyl)-5-methyl-4,7-dihydropyrazolo[1,5-a]pyrimidine-6-carboxamide] is 440 nM; for `CC1=Nc2ccnn2C(c2ccc(Cl)c(Cl)c2)C1C(=O)N1CCCCCC1` (stereo unspecified) [azepan-1-yl(7-(3,4-dichlorophenyl)-5-methyl-4,7-dihydropyrazolo[1,5-a]pyrimidin-6-yl)methanone] it is 190 nM.

Source of the values: BindingDB's records for doi:10.1016/j.bmcl.2008.10.099 (Bristol-Myers Squibb, 2008).
